We go through 2 molecules from ChEMBL document CHEMBL4613261, “Metabolic and Pharmaceutical Aspects of Fluorinated Compounds” (J Med Chem, 2020).

SMILES strings stand for the structures.

The assay concerns the target T1, Lysine decarboxylase (Hafnia alvei) (UniProt P05033).
T1 sequence (whole entry): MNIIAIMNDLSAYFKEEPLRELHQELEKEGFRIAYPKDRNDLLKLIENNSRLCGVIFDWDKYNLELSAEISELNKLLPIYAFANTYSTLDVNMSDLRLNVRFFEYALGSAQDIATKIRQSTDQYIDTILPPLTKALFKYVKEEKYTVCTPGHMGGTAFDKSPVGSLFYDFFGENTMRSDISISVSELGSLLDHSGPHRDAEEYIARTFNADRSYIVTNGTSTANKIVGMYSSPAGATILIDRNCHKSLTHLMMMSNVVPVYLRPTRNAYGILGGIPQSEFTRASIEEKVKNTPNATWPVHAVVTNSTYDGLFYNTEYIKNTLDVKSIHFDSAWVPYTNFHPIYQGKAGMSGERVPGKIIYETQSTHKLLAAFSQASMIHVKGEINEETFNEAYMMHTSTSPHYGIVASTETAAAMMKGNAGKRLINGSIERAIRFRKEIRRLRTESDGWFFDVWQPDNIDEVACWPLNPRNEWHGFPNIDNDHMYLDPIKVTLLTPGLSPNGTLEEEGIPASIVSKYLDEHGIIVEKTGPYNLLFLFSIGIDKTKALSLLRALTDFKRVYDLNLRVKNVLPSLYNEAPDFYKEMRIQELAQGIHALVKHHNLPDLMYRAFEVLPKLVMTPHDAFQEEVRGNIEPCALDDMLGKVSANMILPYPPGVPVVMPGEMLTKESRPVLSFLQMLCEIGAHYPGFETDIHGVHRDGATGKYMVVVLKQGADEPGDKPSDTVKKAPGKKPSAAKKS
Description: Time dependent inhibition of Hafnia alvei lysine decarboxylase assessed as inactivation half life using L-lysine by Kitz-Wilson analysis

As for `C=C(F)[C@](N)(CCCCN)C(=O)O`, the T1/2 turned out to be 2.8 min.
The result for `C=C(F)[C@@](N)(CCCCN)C(=O)O` reads 3.6 min.
